The term Ki denotes the dissociation constant of the complex between target and ligand, obtained from inhibition or displacement. Usually IC50 stands for the concentration that gives 50% inhibition.

We go through six compounds from patent US9617276B2, “Compounds and methods for treating AIDS and HIV infections” (priority 2009, dated 2017).

One test concerns the target T1, HIV-1 protease (Human immunodeficiency virus type 1 group M subtype B, UniProt P04585).
T1 construct: A simple, continuous fluorometric assay for HIV protease
In words: HIV protease enzyme inhibition, fluorometric assay of Toth and Marshall. In kind it is biochemical. To be noted: read-out: Ki. As to the method: (§1) The inhibitory potencies of acyclic and cyclic inhibitors were measured by the assay protocol of Toth and Marshall (Toth, M. V.; Marshall, G. R. A simple, continuous fluorometric assay for HIV protease. Int. J. Pep. Protien Res. 1990, 36, 544-55).

Another test deals with HIV-1. In words: antiviral assay (IC50). In kind it is cell-based. The conditions noted are these: read-out: IC50. As to the method:
as §1

The mark [1] stands for this setting: Human immunodeficiency virus 1, Table 4.

Read-outs that look alike come from different tables or passages of the source.

In the case of `C=CCCCCOc1cc(OC)ccc1S(=O)(=O)N(C[C@@H](O)[C@H](Cc1ccccc1)NC(=O)O[C@H]1CO[C@H]2OCC[C@H]21)CC(C)(C)CC=C` [Compound 19a, (3R,3aS,6aR)-Hexahydrofuro[2,3-b]furan-3-yl (2S,3R)-4-(N-(2,2-dimethylpent-4-enyl)-2-(hex-5-enyloxy)-4-methoxyphenylsulfonamido)-3-hydroxy-1-phenylbutan-2-ylcarbamate], the inhibition constant Ki at HIV-1 protease (Table 4) is less than 100 nM. Moreover, the IC50 in the test with HIV-1 (setting [1]) was more than 1000 nM.
On the same counts, the results for `COc1ccc2c(c1)OCCCCC=CCC(C)(C)CN(CC(O)C(Cc1ccccc1)NC(=O)OC1COC3OCCC13)S2(=O)=O` (stereo not shown) [Compound 20a] are less than 100 nM and more than 1000 nM.
On to `COc1ccc2c(c1)OCCCCC=CCC(C)CN(CC(O)C(Cc1ccccc1)NC(=O)OC1COC3OCCC13)S2(=O)=O` (stereo not shown) [Compound 20b], for which the Ki on HIV-1 protease (Table 4) is less than 10 nM. Further, the IC50 in the test on HIV-1 (Table 4) is less than 100 nM.
For `COc1ccc2c(c1)OCCCCC=CCC(C)CN(CC(O)C(Cc1ccccc1)NC(=O)OC1COC3OCCC13)S2(=O)=O` (stereo not shown) [Compound 20c], the Ki at HIV-1 protease (Table 4) is less than 1 nM; on HIV-1 protease, 0.31 nM. The values for the IC50 in the test with HIV-1 (Human immunodeficiency virus 1) and in the test on HIV-1 (Table 4) were 9 nM and less than 10 nM, respectively.
As for `COc1ccc2c(c1)OCCCCC=CCC(C)(C)CN(CC(O)C(Cc1ccccc1)NC(=O)OC1COC3OCCC13)S2(=O)=O` (stereo not shown) [Compound 21a], at HIV-1 protease (Table 4), the Ki is less than 10 nM. For the same compound, the IC50 in the test with HIV-1 (Table 4) was more than 1000 nM.
Turning to `COc1ccc2c(c1)OCCCCC=CCC(C)CN(CC(O)C(Cc1ccccc1)NC(=O)OC1COC3OCCC13)S2(=O)=O` (stereo not shown) [Compound 21b], the inhibition constant Ki is less than 10 nM at HIV-1 protease (Table 4) and 2.8 nM on HIV-1 protease. Further, the IC50 in the test on HIV-1 (Table 4) is less than 10 nM; in the test with HIV-1, 6.3 nM.
